Data as given in article PMC10807611 (Cancer chemotherapy and pharmacology, 2023).
Values belong to the compound of their own block, whether it stands above or below them.

How the values were obtained:
[1] = Plasma pharmacokinetics on cycle 1 day 1; format: in vivo; conditions: human
[2] = test system: patients with relapsed/refractory AML or MDS; conditions: days 1–5 and 8–12 in combination with bortezomib; cited from earlier work
[3] = test system: patients in the registration trial; conditions: package insert; cited from earlier work

Cmax ([1]; in vivo, Cmax concentrations): ~500 nM | V/F ([1]; in vivo, po): 784.6 ± 204.3 L | Cl/F ([1]; in vivo, po, 225 mg): 57.0 ± 13.6 L/h | Tmax ([1]; in vivo, po, 225 mg): 3 h | AUC(0-inf) ([1]; in vivo, po, 225 mg, AUCINF): 7.41 µM·h | half-life ([1]; in vivo, po, 225 mg, T1/2): 582 ± 116 min
Structure (SMILES): C=CCn1c(=O)c2cnc(Nc3ccc(N4CCN(C)CC4)cc3)nc2n1-c1cccc(C(C)(C)O)n1 [Adavosertib, adavosertib]

AUCINF ([1]; in vivo, iv, 800 mg/m2): 396.0 ± 151.1 (6) μM·h | T1/2 ([1]; in vivo, iv, 800 mg/m2): 3.51 ± 0.95 (6) h | AUCINF ([1]; in vivo, iv, 1000 mg/m2): 668.6 ± 452.2 (4) μM·h | T1/2 ([1]; in vivo, iv, 1000 mg/m2): 4.41 ± 1.30 (4) h
Structure (SMILES): O=C(/C=C/c1cccc(S(=O)(=O)Nc2ccccc2)c1)NO[C@@H]1O[C@H](C(=O)O)[C@@H](O)[C@H](O)[C@H]1O [Belinostat glucuronide, belinostat glucuronide]

Structure (SMILES): O=C(/C=C/c1cccc(S(=O)(=O)Nc2ccccc2)c1)NO [Belinostat, belinostat]
clearance ([1]; plasma, iv, 800 mg/m2): 643 mL/min | Tmax ([1]; plasma, iv, 1000 mg/m2): 0.4 h | clearance ([1]; plasma, iv, 1000 mg/m2): 657 mL/min | Maximum tolerated dose (MTD) [2]: 1000 mg/m^2 | Patients with QTc prolongation, all grades [3]: 11%
